Values joined by “and” are separate entries in the source; they are usually repeats but may differ in a detail not shown here. Equal values may be shown once. Read-outs that look alike come from different tables or passages of the source.
What was measured:
human CB1 receptors = target: T1, human CB1 receptors (Homo sapiens, UniProt P21554); assay: Cannabinoid receptor [3H]CP-55,940 displacement binding assay, CB1; conditions: 1 h; 10 µM compound; CHO cell membranes, 2.5 nM radioligand; read-out: Displacement of [3H]CP-55,940 from CB1
T1 construct: expressed in transfected cells; host or cells: CHO cells
Procedure: (§1) The affinities of the compounds for CB1 and CB2 receptors were examined using displacement assays, as previously described. Briefly, cell membranes from CHO cells expressing human CB1 or human CB2 receptors were isolated using differential centrifugation. Test compounds reconstituted in DMSO and were incubated with the isolated membrane in binding buffer (50 mM Tris-HCl, 1 mM EDTA, 3 mM MgCl2, 5 mg/mL BSA, pH 7.4) along with 2.5 nM [^3H]CP-55,940. Total binding was assessed in the presence of equal concentration of DMSO, while non-specific binding was determined in the presence of 10 μM CP-55,940, and background binding was determined in wells lacking membrane. Following incubation at 30 °C for 60 min, the binding reactions were terminated by vacuum filtration through Whatman GF/C filters. The filters were then washed twice with ice-cold buffer (50 mM Tris-HCl, 1 mg/mL BSA). Liquid scintillation cocktail was added to each well and the total tritiated counts per minute were analyzed using a TopCount scintillation counter. Background counts were subtracted from all wells and the percent displacement from total binding was calculated.
(§2) The compounds were initially screened at 10 μM concentrations. If they produced at least ±30% displacement of the radioligand, then full competition curves were constructed. Ki values were calculated using GraphPad Prism (San Diego, CA, USA) and Kd values determined using a 1 site fit. All assays were run in technical and biological replicates so that the n = 5–6.

human CB2 receptors = target: T2, human CB2 receptors (Homo sapiens, UniProt P34972); assay: Cannabinoid receptor [3H]CP-55,940 displacement binding assay, CB2
T2 construct: expressed in transfected cells; host or cells: CHO cells
Procedure: as §1, §2

[1] = PK evaluation in CD-1 mice (plasma, brain, kidney, liver; i.v. and oral); assay type: in vivo; conditions: for bioavailability: oral vs intravenous 5 mg/kg
Procedure: The primary stock solutions of 4k and phenacetin (internal standard, IS) were prepared in methanol at a concentration of 1.0 mg/mL. Working solutions of calibration standards and quality control (QC) samples were prepared by dilution with methanol and stored at −20 °C. A working stock of the IS solution (20 ng/mL) was prepared in methanol and stored at −20 °C.
Chromatography was performed on an Acquity^TM UPLC system (Waters Corp, Milford, MA, USA) with an autosampler temperature at 10 °C. Waters Acquity UPLC® HSS C18 column (3.0 × 50 mm, 1.8 µm particle size) was used for chromatographic separation with linear gradient elution consisting of (A) 90% acetonitrile and (B) 10% 0.2% formic acid in Milli-Q water as mobile phases. The flow rate was set at 0.30 mL/min, and the injection volume was 2 µL.
An Acquity Tandem Quadrupole Mass Detector (Xevo TQ-S; Waters Corp, Milford, MA, USA) in positive electrospray ionization mode was used for mass spectrometric detection. For collision-induced dissociation, argon was used as collision gas. The cone voltage and collision energy were set at 60 V and 34 V for 4k and 46 V and 26 V for the IS, respectively. Quantification was performed using the monitoring of multiple reaction monitoring (MRM) of following transitions: m/z 409.0/220.9 for 4k and m/z 180.0/92.7 for IS. Retention times of 4k and IS were 2.85 and 1.81 min, respectively.
A simple protein precipitation method was followed for extraction of 4k from mice plasma. To an aliquot of 50 μL of plasma or tissue (brain, liver, or kidney) samples, IS solution (5 μL of 20 ng/mL) was added and mixed for 15 s on a cyclomixer (Thermo Scientific, Indianapolis, IN, USA). After precipitation with 200 μL of acetonitrile, the mixture was vortexed for 2 min, followed by centrifugation for 10 min at 14,000 rpm on an accuSpin Micro 17R (Fisher Scientific, Suwanee, GA, USA) at 5 °C. An aliquot of ~150 μL of clear supernatant was transferred into vials and 2 μL was injected onto LC-MS/MS system for analysis.
Male CD-1 mice (N = 48) were obtained from Envigo (St. Louis, MO, USA) and maintained on a 12:12 h reversed dark/light cycle (lights off at 07:00 h) with ad libitum access to food and water. Following a ~4 h fast, animals were randomly assigned to one of two groups. Group I and II animals (n = 24/group, weight range 25–30 g) received compound 4k (5 mg/kg) orally (in the form of a solution, prepared using 10% absolute alcohol, 10% cremophor, and 80% Milli-Q water) or intravenously (i.v., using solution formulation comprising 10% absolute alcohol, 10% cremophor, and 80% normal saline), respectively. At 0.5, 1, 2, 4, 8, and 24 h post administration, animals were euthanized, blood was collected in K2. EDTA-containing polypropylene tubes and, tissues were collected (brain, liver, and kidney). Plasma was harvested by centrifuging the blood using Eppendorf 5430R Centrifuge (Germany) at 5000 rpm for 5 min and stored frozen at −80 °C until analysis.
Brain, liver, and kidney tissues were homogenized in separate 15 mL round-bottom screw-capped vials in phosphate buffered saline (5 volumes of each tissue mass) with a homogenizer (Polytron®) and stored at −80 °C until analysis. Plasma or tissue homogenates (50 μL) were spiked with IS and processed as mentioned in sample preparation section.
Plasma and tissue concentration and time data of compound 4k were analyzed by a non-compartmental method using WinNonlin Version 5.3 (Pharsight Corporation, Mountain View, CA, USA).

[2] = male, CD-1, mouse, intravenous 5 mg/kg, plasma
[3] = male, CD-1, mouse, oral 5 mg/kg, plasma

T2 sequence (P34972 whole entry): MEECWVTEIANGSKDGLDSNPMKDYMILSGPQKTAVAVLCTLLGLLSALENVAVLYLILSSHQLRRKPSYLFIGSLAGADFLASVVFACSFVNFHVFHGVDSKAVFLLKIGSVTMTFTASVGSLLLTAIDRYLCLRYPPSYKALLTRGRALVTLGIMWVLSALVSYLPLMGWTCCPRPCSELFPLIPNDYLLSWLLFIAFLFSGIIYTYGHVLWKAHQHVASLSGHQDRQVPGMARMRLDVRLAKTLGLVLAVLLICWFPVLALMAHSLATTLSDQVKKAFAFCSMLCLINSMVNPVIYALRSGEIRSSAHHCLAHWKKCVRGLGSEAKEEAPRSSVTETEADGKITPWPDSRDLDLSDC
T1 sequence (P21554 whole entry): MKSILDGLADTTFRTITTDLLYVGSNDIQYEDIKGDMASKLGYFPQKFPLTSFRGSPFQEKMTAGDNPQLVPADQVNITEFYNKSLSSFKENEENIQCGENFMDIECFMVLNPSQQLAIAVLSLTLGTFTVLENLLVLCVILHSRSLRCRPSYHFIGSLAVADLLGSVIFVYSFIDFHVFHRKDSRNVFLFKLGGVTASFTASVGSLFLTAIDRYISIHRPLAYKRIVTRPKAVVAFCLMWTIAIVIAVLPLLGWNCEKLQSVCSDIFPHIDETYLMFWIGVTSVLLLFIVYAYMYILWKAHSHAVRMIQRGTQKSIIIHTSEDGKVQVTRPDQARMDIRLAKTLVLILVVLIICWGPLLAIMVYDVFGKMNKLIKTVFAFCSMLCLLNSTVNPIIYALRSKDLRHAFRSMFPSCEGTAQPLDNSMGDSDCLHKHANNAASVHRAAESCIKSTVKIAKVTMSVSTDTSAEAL

`O=C1c2ccc(Cl)cc2N/C(=N/N=C/c2cc3ccccc3s2)[C@@H]2CCCN12` [Compound 4k] showed an inhibition at 10 µM (human CB1 receptors) of 41.3%, an inhibition at 10 µM (human CB2 receptors; 1 h, 10 µM compound, CHO cell membranes, 2.5 nM radioligand, read-out: Displacement of [3H]CP-55,940 from CB2) of 84.6% and a Ki (human CB2 receptors; CB2, full competition curves vs [3H]CP-55,940) of 146 nM. The “AUC0–∞” value ([1]; intravenous 5 mg/kg, brain) was 5685 ng·h/g, the t1/2 ([1]; intravenous 5 mg/kg, brain, 5 mg/kg) was 6.54 h and the “AUC0–∞” value ([1]; intravenous 5 mg/kg, kidney) was 13272 ng·h/g. The “AUC0–∞” value ([1]; intravenous 5 mg/kg, liver) was 19991 ng·h/g, the t1/2 ([1]; intravenous 5 mg/kg, liver, 5 mg/kg) was 9.26 h and the “clearance as share of hepatic blood flow in mice” value ([1]; intravenous 5 mg/kg, plasma) was 26%. The t1/2 ([1]; intravenous 5 mg/kg, plasma, 5 mg/kg) was 6.91 h, the Kp ([1]; male, CD-1, mouse, brain and plasma, intravenous 5 mg/kg, read-out: mean brain to plasma ratio) was 3.67 and the Kp ([1]; male, CD-1, mouse, brain and plasma, oral 5 mg/kg, read-out: mean brain to plasma ratio) was 4.61. For the same molecule, the half-life ([1]; male, CD-1, mouse, brain, iv, 5 mg/kg, intravenous 5 mg/kg, brain, read-out: t1/2 (converted)) was 6.5 h, the half-life ([1]; male, CD-1, mouse, brain, po, 5 mg/kg, oral 5 mg/kg, brain, read-out: t1/2 (converted)) was 22.9 h and the Kp ([1]; male, CD-1, mouse, kidney and plasma, intravenous 5 mg/kg, read-out: mean kidney to plasma ratio) was 14.5. The Kp ([1]; male, CD-1, mouse, kidney and plasma, oral 5 mg/kg, read-out: mean kidney to plasma ratio) was 7.25, the half-life ([1]; male, CD-1, mouse, kidney, iv, 5 mg/kg, intravenous 5 mg/kg, kidney, read-out: t1/2 (converted)) was 10.2 h and the half-life ([1]; male, CD-1, mouse, kidney, po, 5 mg/kg, oral 5 mg/kg, kidney, read-out: t1/2 (converted)) was 16.7 h. The Kp ([1]; male, CD-1, mouse, liver and plasma, intravenous 5 mg/kg, read-out: mean liver to plasma ratio) was 11.5, the Kp ([1]; male, CD-1, mouse, liver and plasma, oral 5 mg/kg, read-out: mean liver to plasma ratio) was 9.89 and the half-life ([1]; male, CD-1, mouse, liver, iv, 5 mg/kg, intravenous 5 mg/kg, liver, read-out: t1/2 (converted)) was 9.3 h. The half-life ([1]; male, CD-1, mouse, liver, kidney, other: oral or intravenous, 5 mg/kg, oral or intravenous route, liver and kidneys, read-out: elimination half-lives in the liver and kidneys) was 9.3 to 16.7 h, the half-life ([1]; male, CD-1, mouse, liver, po, 5 mg/kg, oral 5 mg/kg, liver, read-out: t1/2 (converted)) was 13 h and the half-life ([1]; male, CD-1, mouse, plasma, iv, 5 mg/kg, intravenous 5 mg/kg, plasma, read-out: t1/2 (converted)) was 6.9 h. For the same molecule, the half-life ([1]; male, CD-1, mouse, plasma, po, 5 mg/kg, oral 5 mg/kg, plasma, read-out: t1/2 (converted)) was 16.4 h, the Cmax ([1]; male, CD-1, mouse, intravenous 5 mg/kg, brain, read-out: Cmax or C0) was 2260 ng/g and the Vd ([1]; male, CD-1, mouse, intravenous 5 mg/kg, brain, read-out: volume of distribution) was 8.82 ± 2.43 L/kg. For the same molecule, the Cmax ([1]; male, CD-1, mouse, intravenous 5 mg/kg, kidney, read-out: Cmax or C0) was 4720 ng/g, the Vd ([1]; male, CD-1, mouse, intravenous 5 mg/kg, kidney, read-out: volume of distribution) was 5.63 ± 0.37 L/kg and the Cmax ([1]; male, CD-1, mouse, intravenous 5 mg/kg, liver, read-out: Cmax or C0) was 13500 ng/g. It also gave a Vd ([1]; male, CD-1, mouse, intravenous 5 mg/kg, liver, read-out: volume of distribution) of 3.38 ± 0.18 L/kg, an AUC(0-inf) [1, 2] of 4020 ng·h/mL and a clearance [1, 2] of 23.5 mL/min/kg. It also gave a C0 ([1]; male, CD-1, mouse, intravenous 5 mg/kg, plasma, read-out: Cmax or C0) of 4340 ng/mL, a Vd ([1]; male, CD-1, mouse, intravenous 5 mg/kg, plasma, read-out: Vd) of 14.3 L/kg and a Tmax ([1]; male, CD-1, mouse, oral 5 mg/kg, brain) of 1.25 h. For the same molecule, the Cmax ([1]; male, CD-1, mouse, oral 5 mg/kg, brain, read-out: Cmax) was 602 ng/g, the Tmax ([1]; male, CD-1, mouse, oral 5 mg/kg, kidney) was 0.75 h and the Cmax ([1]; male, CD-1, mouse, oral 5 mg/kg, kidney, read-out: Cmax) was 795 ng/g. The Tmax ([1]; male, CD-1, mouse, oral 5 mg/kg, liver) was 0.75 h, the Cmax ([1]; male, CD-1, mouse, oral 5 mg/kg, liver, read-out: Cmax) was 1890 ng/g and the AUC(0-inf) [1, 3] was 739 ng·h/mL. It also gave a Tmax [1, 3] of 0.88 h, a Cmax ([1]; male, CD-1, mouse, oral 5 mg/kg, plasma, read-out: Cmax) of 198 ng/mL and a bioavailability ([1]; male, CD-1, mouse, brain, read-out: F (apparent oral bioavailability)) of 42.5 ± 5.75%. The bioavailability ([1]; male, CD-1, mouse, plasma, read-out: F (oral bioavailability)) was 18%, the “AUC0–∞” value ([1]; oral 5 mg/kg, brain, 5 mg/kg) was 3069 ± 64 ng·h/g and 3069 ng·h/g and the “AUC0–∞” value ([1]; oral 5 mg/kg, kidney, 5 mg/kg) was 5223 ± 44.75 ng·h/g and 5223 ng·h/g. The “AUC0–∞” value ([1]; oral 5 mg/kg, liver, 5 mg/kg) was 6423 ± 571 ng·h/g and 6423 ng·h/g.
